The data set can be described thus: Transfluthrin evaporation / release rate from loaded fabric substrates (aging, acetone extraction, GC-MS). The class given is physicochemical. The text has this:
In some cases, release rates of the pyrethroids may range between about 0.1 milligrams per hour and about 3 milligrams per hour, as measured by gas chromatography mass spectroscopy (GC-MS). In some embodiments, the release rate may range between about 0.1 milligrams per hour and about 3 milligrams per hour, between about 0.5 milligrams per hour and about 3 milligrams per hour, or between about 1 milligrams per hour and about 3 milligrams per hour for an overall device of the invention, as measured by GC-MS. Other release rates are also possible. The release rate of the pyrethroid may be determined, for example, by immersing a loaded substrate in a suitable solvent (e.g., acetone) and sonicating. The substrate may then be rinsed and the solvent containing the released pyrethroid is collected. […]
Fabric samples comprised of cellulose or glass were prepared with Transfluthrin using either a wet application, or a wet application followed by a dry application, as described herein. […] The amount of Transfluthrin in the extracted sample was measured using a Restel Rtx®-5MS gas chromatography—mass spectrometry column. […] Evaporation rates, as determined by solvent extraction of Transfluthrin and followed by GC-MS as described previously, for cellulose fabric wet application and wet-and-dry application samples (Samples A and B in Table 1) are plotted in FIG. 3A and FIG. 3B, respectively. […]

Regarding `CC1(C)[C@H](C=C(Cl)Cl)[C@H]1C(=O)OCc1c(F)c(F)cc(F)c1F` [transfluthrin, Transfluthrin], the evaporation rate runs as follows: (combination of particle size distributions on 5″×4″ square fabric of cellulose) 0.5 mg per 21 days; (on an equivalent 20″×20″ cellulose fabric) 10 mg per 21 days.

The record behind these values is patent publication US10092003B2, “Insect control device and associated methods” (Novel Textiles & Treatments LLC, priority 2014, dated 2018).
